In ChEMBL document CHEMBL1201862, “PubChem BioAssay data set” (2004):
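Step 1: Grow cells in 96-well plates. Step 2: Expose to compound for 48 hours at 5 concentrations. Step 3: Interpolate endpoints linearly; if unreached, use highest concentration. The concentration for 50% growth inhibition is given as GI50.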 Calls of active or inactive are those of the source. No stated cut-off is given here; in the data, active = GI50 up to about 1.1 µM and inactive = higher.

Assays:
Assay in all cases: NCI anticancer screen, dose series, 48 h
[1] = test system: SF-539
[2] = test system: A549
[3] = test system: SNB-19
[4] = test system: HOP-62
[5] = test system: SK-MEL-28
[6] = test system: KM-20L2
[7] = test system: SF-268
[8] = test system: U-251
[9] = test system: NCI-H522
[10] = test system: Malme-3M
[11] = test system: DMS-273
[12] = test system: HL-60
[13] = test system: ACHN
[14] = test system: M14
[15] = test system: SK-MEL-2
[16] = test system: SF-295
[17] = test system: RPMI-8226
[18] = test system: KM12
[19] = test system: HOP-92
[20] = test system: NCI-H23
[21] = test system: 786-0
[22] = test system: RXF 393
[23] = test system: SN12C
[24] = test system: UO-31
[25] = test system: SW-620
[26] = test system: RXF 631
[27] = test system: HCC 2998
[28] = test system: LXFL 529
[29] = test system: OVCAR-3
[30] = test system: CCRF-CEM
[31] = test system: COLO 205
[32] = test system: IGROV-1
[33] = test system: OVCAR-8
[34] = test system: UACC-257
[35] = test system: OVCAR-5
[36] = test system: HT-29
[37] = test system: CAKI-1
[38] = test system: LOX IMVI
[39] = test system: OVCAR-4
[40] = test system: SNB-75
[41] = test system: A498
[42] = test system: MOLT-4
[43] = test system: M19-MEL
[44] = test system: EKVX
[45] = test system: K562
[46] = test system: UACC-62
[47] = test system: TK-10
[48] = test system: SK-OV-3
[49] = test system: NCI-H460
[50] = test system: DLD-1
[51] = test system: SK-MEL-5
[52] = test system: SNB-78
[53] = test system: DMS-114
[54] = test system: HOP-18
[55] = test system: XF498
[56] = test system: SR
[57] = test system: HCT-15
[58] = test system: NCI-H226
[59] = test system: HCT-116

CCCCCCCc1cc(OC(=O)c2c(C)cc(OC)cc2O)cc(O)c1C(=O)O
GI50 [1]: 17.6 µM (inactive)
GI50 [2]: 29.9 µM (inactive)
GI50 [3]: 26.4 µM (inactive)
GI50 [4]: 18.5 µM (inactive)
GI50 [5]: 20.1 µM (inactive)
GI50 [6]: 21.2 µM (inactive)
GI50 [7]: 20.2 µM (inactive)
GI50 [8]: 17.9 µM (inactive)
GI50 [9]: 23.8 µM (inactive)
GI50 [10]: 19.8 µM (inactive)
GI50 [11]: 28.8 µM (inactive)
GI50 [12]: 26.5 µM (inactive)
GI50 [13]: 24.7 µM (inactive)
GI50 [14]: 21.3 µM (inactive)
GI50 [15]: 19.1 µM (inactive)
GI50 [16]: 19.3 µM (inactive)
GI50 [17]: 22.6 µM (inactive)
GI50 [18]: 23.1 µM (inactive)
GI50 [19]: 26 µM (inactive)
GI50 [20]: 20.3 µM (inactive)
GI50 [21]: 19 µM (inactive)
GI50 [22]: 22 µM (inactive)
GI50 [23]: 26.6 µM (inactive)
GI50 [24]: 16.9 µM (inactive)
GI50 [25]: 26.2 µM (inactive)
GI50 [26]: 25.5 µM (inactive)
GI50 [27]: 20.3 µM (inactive)
GI50 [28]: 18.2 µM (inactive)
GI50 [29]: 14.6 µM (inactive)
GI50 [30]: 24.7 µM (inactive)
GI50 [31]: 20.7 µM (inactive)
GI50 [32]: 22.7 µM (inactive)
GI50 [33]: 27.1 µM (inactive)
GI50 [34]: 30.4 µM (inactive)
GI50 [35]: 16.6 µM (inactive)
GI50 [36]: 32.5 µM (inactive)
GI50 [37]: 22.5 µM (inactive)
GI50 [38]: 21.3 µM (inactive)
GI50 [39]: 28.1 µM (inactive)
GI50 [40]: 19 µM (inactive)
GI50 [41]: 19.1 µM (inactive)
GI50 [42]: 27.7 µM (inactive)
GI50 [43]: 23.6 µM (inactive)
GI50 [44]: 25.2 µM (inactive)
GI50 [45]: 33.9 µM (inactive)
GI50 [46]: 21 µM (inactive)
GI50 [47]: 28.7 µM (inactive)
GI50 [48]: 24.5 µM (inactive)
GI50 [49]: 19.3 µM (inactive)
GI50 [50]: 19.8 µM (inactive)
GI50 [51]: 21.6 µM (inactive)
GI50 [52]: 29.2 µM (inactive)

COC1CC(OS(=O)(=O)c2ccc(C)cc2)C(OC(=O)c2ccccc2)C(C)O1 (stereo not given)
GI50 [1]: > 10 µM (inactive)
GI50 [2]: > 10 µM (inactive)
GI50 [3]: > 10 µM (inactive)
GI50 [4]: > 10 µM (inactive)
GI50 [5]: > 10 µM (inactive)
GI50 [6]: > 10 µM (inactive)
GI50 [53]: > 100 µM (inactive)
GI50 [7]: > 100 µM (inactive)
GI50 [8]: > 10 µM (inactive)
GI50 [9]: > 10 µM (inactive)
GI50 [54]: > 10 µM (inactive)
GI50 [10]: > 10 µM (inactive)
GI50 [11]: > 10 µM (inactive)
GI50 [12]: > 10 µM (inactive)
GI50 [13]: > 10 µM (inactive)
GI50 [55]: > 100 µM (inactive)
GI50 [56]: > 10 µM (inactive)
GI50 [14]: > 10 µM (inactive)
GI50 [15]: > 10 µM (inactive)
GI50 [16]: > 100 µM (inactive)
GI50 [17]: > 100 µM (inactive)
GI50 [57]: > 10 µM
GI50 [18]: > 10 µM (inactive)
GI50 [19]: 99.1 µM (inactive)
GI50 [58]: > 10 µM (inactive)
GI50 [20]: > 10 µM (inactive)
GI50 [21]: > 10 µM (inactive)
GI50 [22]: 88.5 µM (inactive)
GI50 [23]: > 10 µM (inactive)
GI50 [24]: > 10 µM (inactive)
GI50 [25]: > 10 µM (inactive)
GI50 [27]: > 10 µM (inactive)
GI50 [28]: > 10 µM (inactive)
GI50 [29]: > 10 µM (inactive)
GI50 [30]: > 10 µM (inactive)
GI50 [31]: > 10 µM (inactive)
GI50 [32]: > 10 µM (inactive)
GI50 [59]: > 10 µM (inactive)
GI50 [33]: > 10 µM (inactive)
GI50 [34]: > 10 µM (inactive)
GI50 [35]: > 10 µM (inactive)
GI50 [36]: > 10 µM (inactive)
GI50 [37]: > 10 µM (inactive)
GI50 [38]: > 10 µM (inactive)
GI50 [39]: > 10 µM (inactive)
GI50 [40]: 99.5 µM (inactive)
GI50 [41]: > 10 µM (inactive)
GI50 [42]: > 10 µM (inactive)
GI50 [43]: > 10 µM (inactive)
GI50 [44]: > 10 µM (inactive)
GI50 [45]: > 10 µM (inactive)
GI50 [46]: > 100 µM (inactive)
GI50 [47]: > 10 µM (inactive)
GI50 [48]: > 10 µM (inactive)
GI50 [49]: > 10 µM (inactive)
GI50 [50]: > 10 µM (inactive)
GI50 [51]: > 10 µM (inactive)
GI50 [52]: > 10 µM (inactive)
